In US8173797B2 (Cornell Research Foundation, Inc., priority 2004, dated 2012):

Test: solubility in aprotic NMR solvents
Assay type: physicochemical

## CC1OC(OC2C(O)C(C)OC(OC3C(COS(=O)(=O)O)OC(n4cnc5c(=O)[nH]c(N)nc54)C3O)C2O)C(O)C(O)C1O (stereo not shown) [Compound 2]
  solubility: quite insoluble
